Assay results as given in ChEMBL document CHEMBL1201862, “PubChem BioAssay data set” (2004).
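Protocol summary: plate cells (96-well), add compound at 5 concentrations, incubate 48 h, interpolate endpoints linearly. GI50 is the concentration that inhibits growth by half.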 Active and inactive are the calls of the source. No stated cut-off is given here; in the data, active = GI50 up to about 1.1 µM and inactive = higher. *1 amine or outer side, *2 acyl side, *3 side chain or, on linkers, in order; H or OH if unused. Where a SMILES comes first, the peptide text is derived from it. Bridges are numbered along the chain shown (N, C = ends). Roman numbers before positions name the chains, in order. [ ]: non-standard residue; d: D form. Actinocin(9to1) = Cc1c2oc3c(C)ccc(C(=O)[*:1])c3nc-2c(C(=O)[*:2])c(N)c1=O; NMeV = CN[CH](C(=O)O)C(C)C; Sar = CNCC(=O)O

Key:
Assay in all cases: DTP human tumour cell line panel, 48 h
SK-MEL-28 = test system: SK-MEL-28
A498 = test system: A498
K562 = test system: K562
A549 = test system: A549
NCI-H460 = test system: NCI-H460
RXF 393 = test system: RXF 393
SF-539 = test system: SF-539
SF-295 = test system: SF-295
UACC-257 = test system: UACC-257
SR = test system: SR
NCI-H522 = test system: NCI-H522
OVCAR-3 = test system: OVCAR-3
786-0 = test system: 786-0
OVCAR-4 = test system: OVCAR-4
SN12C = test system: SN12C
HL-60 = test system: HL-60
HT-29 = test system: HT-29
RPMI-8226 = test system: RPMI-8226
SF-268 = test system: SF-268
CCRF-CEM = test system: CCRF-CEM

Compound	GI50 (SK-MEL-28)	GI50 (A498)	GI50 (K562)	GI50 (A549)	GI50 (NCI-H460)	GI50 (RXF 393)	GI50 (SF-539)	GI50 (SF-295)	GI50 (UACC-257)	GI50 (SR)	GI50 (NCI-H522)	GI50 (OVCAR-3)	GI50 (786-0)	GI50 (OVCAR-4)	GI50 (SN12C)	GI50 (HL-60)	GI50 (HT-29)	GI50 (RPMI-8226)	GI50 (SF-268)	GI50 (CCRF-CEM)
N=C(N)NCC(N)C(=O)O (stereo unspecified)	> 100 µM (inactive)	> 100 µM (inactive)	> 100 µM (inactive)	> 100 µM (inactive)	> 100 µM (inactive)	> 100 µM (inactive)	> 100 µM (inactive)	> 100 µM (inactive)	> 100 µM (inactive)	> 100 µM (inactive)	> 100 µM (inactive)	> 100 µM (inactive)	> 100 µM (inactive)	> 100 µM (inactive)	> 100 µM (inactive)	> 100 µM (inactive)	> 100 µM (inactive)	> 100 µM (inactive)	> 100 µM (inactive)	–
Cn1c(=O)c2nc3sc4c(n3c2n(C)c1=O)C(=O)c1ccccc1C4=O	> 75 µM (inactive)	> 100 µM (inactive)	63.2 µM (inactive)	> 81.7 µM (inactive)	> 71.1 µM (inactive)	> 26.5 µM (inactive)	> 61.7 µM (inactive)	> 72.3 µM (inactive)	> 88.9 µM (inactive)	19.5 µM (inactive)	11 µM (inactive)	12.1 µM (inactive)	> 68.1 µM (inactive)	> 64.6 µM (inactive)	> 69.2 µM (inactive)	11.2 µM (inactive)	42.6 µM (inactive)	38.4 µM (inactive)	> 78.5 µM (inactive)	17.6 µM (inactive)
COc1ccc(Nc2nc(N)c(C(=O)c3c[nH]c4ccccc34)s2)cc1	14.9 µM (inactive)	2.05 µM (inactive)	0.397 µM (active)	1.41 µM (inactive)	0.942 µM (active)	2.03 µM (inactive)	2.42 µM (inactive)	0.5 µM (active)	7.85 µM (inactive)	0.0655 µM (active)	0.0302 µM (active)	0.745 µM (active)	2.15 µM (inactive)	5.42 µM (inactive)	3.61 µM (inactive)	1.07 µM (active)	0.583 µM (active)	0.998 µM (active)	6.84 µM (inactive)	2.16 µM (inactive)
OC1(CCc2ccccc2)COC(C(F)(F)F)(C(F)(F)F)C1 (stereo unspecified)	> 100 µM (inactive)	> 100 µM (inactive)	> 100 µM (inactive)	> 100 µM (inactive)	> 100 µM (inactive)	> 100 µM (inactive)	> 100 µM (inactive)	> 100 µM (inactive)	–	> 100 µM (inactive)	> 100 µM (inactive)	> 100 µM (inactive)	> 100 µM (inactive)	> 100 µM (inactive)	> 100 µM (inactive)	> 100 µM (inactive)	> 100 µM (inactive)	97.3 µM (inactive)	> 100 µM (inactive)	> 100 µM (inactive)
Cn1c(=O)c2[nH]c(/N=N/N3CCN(CCO)CC3)nc2n(C)c1=O	> 100 µM (inactive)	> 100 µM (inactive)	> 100 µM (inactive)	> 100 µM (inactive)	> 100 µM (inactive)	> 100 µM (inactive)	> 100 µM (inactive)	> 100 µM (inactive)	> 100 µM (inactive)	> 100 µM (inactive)	> 100 µM (inactive)	> 100 µM (inactive)	> 100 µM (inactive)	> 100 µM (inactive)	> 100 µM (inactive)	> 100 µM (inactive)	> 100 µM (inactive)	> 100 µM (inactive)	> 100 µM (inactive)	> 100 µM (inactive)
Cc1c2cc[n+](C)cc2c(C)c2c1[nH]c1ccccc12	1.62 µM (inactive)	2.39 µM (inactive)	3.05 µM (inactive)	0.249 µM (active)	1.89 µM (inactive)	1.7 µM (inactive)	0.505 µM (active)	0.237 µM (active)	6.41 µM (inactive)	0.497 µM (active)	0.774 µM (active)	3.06 µM (inactive)	–	2.03 µM (inactive)	0.172 µM (active)	8.69 µM (inactive)	5.66 µM (inactive)	8.02 µM (inactive)	0.467 µM (active)	2.25 µM (inactive)
COc1ccc(CC2COc3cc(O)cc(O)c3C2=O)cc1O (stereo unspecified)	3.75 µM (inactive)	99.3 µM (inactive)	3.13 µM (inactive)	11.9 µM (inactive)	6.15 µM (inactive)	24.5 µM (inactive)	2.97 µM (inactive)	4.3 µM (inactive)	> 100 µM (inactive)	1.03 µM (active)	4.7 µM (inactive)	2.3 µM (inactive)	9.75 µM (inactive)	11.8 µM (inactive)	8.34 µM (inactive)	2.4 µM (inactive)	13.6 µM (inactive)	3.01 µM (inactive)	14.7 µM (inactive)	3.4 µM (inactive)
COc1ccc2c(Cc3c4ccccc4cc4ccccc34)cncc2c1O	14.1 µM (inactive)	3.99 µM (inactive)	0.655 µM (active)	3.44 µM (inactive)	1.45 µM (inactive)	3.4 µM (inactive)	0.245 µM (active)	1.55 µM (inactive)	2.32 µM (inactive)	0.21 µM (active)	0.698 µM (active)	1.98 µM (inactive)	4.21 µM (inactive)	5.37 µM (inactive)	5.01 µM (inactive)	1.87 µM (inactive)	14.2 µM (inactive)	1.85 µM (inactive)	3.79 µM (inactive)	0.36 µM (active)
Cc1ccc(C2(O)c3ccccc3C(=O)N(C)C2(O)c2ccc(C)cc2)cc1 (stereo unspecified)	> 100 µM (inactive)	> 100 µM (inactive)	28.4 µM (inactive)	> 100 µM (inactive)	22.6 µM (inactive)	32.3 µM (inactive)	45.1 µM (inactive)	38.1 µM (inactive)	> 100 µM (inactive)	2.39 µM (inactive)	> 100 µM (inactive)	> 100 µM (inactive)	37 µM (inactive)	18.2 µM (inactive)	58.3 µM (inactive)	16.1 µM (inactive)	46.8 µM (inactive)	> 100 µM (inactive)	21.2 µM (inactive)	15.4 µM (inactive)
Nn1c(S)nnc1COc1cccc(OCc2nnc(S)n2N)c1	> 100 µM (inactive)	> 100 µM (inactive)	4.9 µM (inactive)	> 100 µM (inactive)	29.7 µM (inactive)	> 100 µM (inactive)	80 µM (inactive)	> 100 µM (inactive)	> 100 µM (inactive)	2.45 µM (inactive)	65.3 µM (inactive)	> 100 µM (inactive)	34.3 µM (inactive)	> 100 µM (inactive)	> 100 µM (inactive)	86.3 µM (inactive)	43.7 µM (inactive)	53.6 µM (inactive)	> 100 µM (inactive)	30.7 µM (inactive)
Oc1cccc(-c2nc3ccccc3s2)c1	74.6 µM (inactive)	52.5 µM (inactive)	55.6 µM (inactive)	26.2 µM (inactive)	34 µM (inactive)	32.1 µM (inactive)	28.7 µM (inactive)	26.7 µM (inactive)	26.4 µM (inactive)	29.2 µM (inactive)	17.6 µM (inactive)	21.6 µM (inactive)	71.6 µM (inactive)	19.1 µM (inactive)	33.8 µM (inactive)	47.8 µM (inactive)	18.8 µM (inactive)	39.4 µM (inactive)	19.8 µM (inactive)	57 µM (inactive)
CSC1(C)C(=O)Nc2c(OCc3ccccc3)cc([N+](=O)[O-])cc21 (stereo unspecified)	75.3 µM (inactive)	34.2 µM (inactive)	91 µM (inactive)	21.5 µM (inactive)	> 100 µM (inactive)	51.3 µM (inactive)	66.1 µM (inactive)	57.1 µM (inactive)	> 100 µM (inactive)	> 100 µM (inactive)	94.8 µM (inactive)	> 100 µM (inactive)	12.9 µM (inactive)	> 100 µM (inactive)	13.4 µM (inactive)	40.7 µM (inactive)	79.3 µM (inactive)	32.2 µM (inactive)	31.6 µM (inactive)	84.3 µM (inactive)
CC1(CO)OC(n2cnc3c(N)ncnc32)C(O)C1O (stereo unspecified)	> 100 µM (inactive)	> 100 µM (inactive)	> 100 µM (inactive)	> 100 µM (inactive)	> 100 µM (inactive)	> 100 µM (inactive)	> 100 µM (inactive)	> 100 µM (inactive)	–	> 100 µM (inactive)	> 100 µM (inactive)	> 100 µM (inactive)	> 100 µM (inactive)	> 100 µM (inactive)	> 100 µM (inactive)	> 100 µM (inactive)	> 100 µM (inactive)	> 100 µM (inactive)	> 100 µM (inactive)	> 100 µM (inactive)
Cc1c2oc3c(C)ccc(C(=O)NC4C(=O)NC(C(C)O)C(=O)N5CCCC5C(=O)N(C)CC(=O)N(C)C(C(C)C)C(=O)OC4C)c3nc-2c(C(=O)NC2C(=O)NC(C(C)O)C(=O)N3CCCC3C(=O)N(C)CC(=O)N(C)C(C(C)C)C(=O)OC2C)c(N)c1=O (stereo unspecified) (I: TTP[Sar][NMeV] / II: TTP[Sar][NMeV]; ester I:1-I:C, II:1-II:C; linker I:N-II:N via Actinocin(9to1); configuration not given here)	0.147 µM (active)	0.774 µM (active)	0.0448 µM (active)	0.783 µM (active)	0.0818 µM (active)	0.0946 µM (active)	0.0764 µM (active)	0.453 µM (active)	0.244 µM (active)	< 0.01 µM (active)	0.0766 µM (active)	0.28 µM (active)	0.136 µM (active)	0.931 µM (active)	0.207 µM (active)	0.437 µM (active)	0.34 µM (active)	0.0365 µM (active)	0.198 µM (active)	0.119 µM (active)
